Source: patent US7846434B2, “Materials and methods for improved immunoglycoproteins” (Trubion Pharmaceuticals, Inc., priority 2006, dated 2010)

Assays:
[1] = test system: BJAB B cells; assay: ADCC, 51Cr-labeled BJAB B cells with human PBMC effectors; format: cell-based; conditions: culture media containing 200 μM DMJ, 10 μM kifenunsine or 200 μM castanospermine
Experimental: To determine the ADCC activity of purified TRU-016, labeled BJAB B cells were used as targets and human peripheral blood mononuclear cells (PBMC) as effector cells. BJAB B cells (10^7 cells) were labeled with 500 μCi/mL ^51Cr sodium chromate for 2 hours at 37° C. in IMDM/10% FBS. PBMCs were isolated from heparinized, human whole blood by fractionation over Lymphocyte Separation Media (LSM, ICN Biomedical) gradients. Reagent samples were added to RPMI media with 10% FBS and serial dilutions of each reagent were prepared. The ^51Cr labeled BJAB were added at 2×10^4 cells/well. The PBMCs were then added at 5×10^5 cells/well for a final ratio of 25:1 effectors (PBMC):targets (BJAB). Reactions were set up in quadruplicate wells of a 96 well plate. Reactions were allowed to proceed for 6 hours at 37° C. in 5% CO2 prior to harvesting and counting. CPM released was measured on a Packard TopCounNXT from 50 μl dried culture supernatant. Percent specific killing was calculated by subtracting (cpm [mean of quadruplicate samples] of sample−cpm spontaneous release)/(cpm maximal release−cpm spontaneous release)×100, and data were plotted as % specific killing versus TRU-016 concentration.

[2] = test system: CD16 (Fcγ RIII); assay: Binding of SMIP bound on WIL2-S cells to soluble FcγR-MIg fusion (CD16), flow cytometry
[3] = test system: Ramos cells; assay: Ramos tumor model in nude mice; format: in vivo; conditions: 200 μg i.v. on days 0, 2, 4, 6 and 8
Experimental: Nude mice are administered 5×10^6 Ramos cells subcutaneously on day 0 and injected intravenously with 200 μg control human IgG or TRU-016 test protein produced by CHO cells treated with 200 μM DMJ, 10 μM kifenunsine or 200 μM castanospermine on days 0, 2, 4, 6, and 8. Mice typically develop tumors within 6 days and die shortly thereafter. Tumors are measured three times weekly with digital calipers and LabCat software, and tumor volume is calculated as […]. Body weight is also determined once a week.
Mice are sacrificed when the tumor reaches 1500 mm^3 in size (1200 mm^3 on Fridays). Mice are also sacrificed if ulceration of a tumor occurs, the tumor inhibits the mobility of animal, or if weight loss equals or exceeds 20%.

Molecule	ADCC of TRU-016 purified protein (% specific killing) [1]	CD16 binding of TRU-016 supernatant (mean fluorescence intensity) ([2]; CHO cells cultured with modifier at 50 or 250 μM)	CD16 binding of TRU-016 supernatant (mean fluorescence intensity) ([2]; CHO cells cultured with kifunensine 0, 0.5, 1, 3, 5 or 10 μM)	Median Survival Time [3] [days]
OC[C@H]1NC[C@@H](O)[C@@H](O)[C@@H]1O [DMJ, Deoxymannojirimycin]	improved	increased		
O=C1N[C@@H]2[C@@H](O)[C@@H](O)[C@H](O)[C@@H](CO)N2C1=O [kifunensine, Kifunensine]	improved		greatly increased	
CS TRU-016: TRU-016 produced by CHO cells treated with 200 μM castanospermine				13
Kifu TRU-016: TRU-016 produced by CHO cells treated with 10 μM kifenunsine (antibody, chains of the INN, looked up, V domains shown, altered glycosylation (kifunensine-treated CHO), TRU-016 produced by CHO cells treated with 10 μM kifenunsine) VH: EVQLVQSGAEVKKPGESLKISCKGSGYSFTGYNMNWVRQMPGKGLEWMGNIDPYYGGTTYNRKFKGQVTISADKSISTAYLQWSSLKASDTAMYYCARSVGPFDSWGQGTLVTVSS VL: EIVLTQSPATLSLSPGERATLSCRASENVYSYLAWYQQKPGQAPRLLIYFAKTLAEGIPARFSGSGSGTDFTLTISSLEPEDFAVYYCQHHSDNPWTFGQGTKVEIK				10
